Test results taken from US20260327240A1, “1,4-CINEOLE DERIVATIVE AND INTERMEDIATE THEREOF, HERBICIDE CONTAINING SAID DERIVATIVE AS ACTIVE INGREDIENT, METHOD FOR USING HERBICIDE, AND METHOD FOR PREPARING AGROCHEMICAL COMPOSITION” (HOKKO CHEMICAL INDUSTRY CO., LTD., priority 2023, published 2026).

Columns and labels:
Type in all cases: in vivo
[1] = test system: Echinochloa crus-galli var. formosensis; experiment: Test Example 1: herbicidal effect test by soil application in paddy rice; conditions: Echinochloa crus-galli, 336 h, 120 g per 10 ares, 14 days after application, read-out: weed inhibition rate
Summary of the method: (§1)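 Paddy soil in flooded Wagner pots (~3 cm water), weed seeds sown at 0–1 cm depth, greenhouse; emulsifiable concentrate diluted in water and applied by dropper immediately after sowing at 120 g active ingredient per 10 ares. Duplicate pots; weed inhibition rate (%) scored 14 days after application.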

Monochoria vaginalis = experiment: as above; conditions: Pontederia vaginalis, 336 h, 120 g per 10 ares, 14 days after application, read-out: weed inhibition rate
Summary of the method: as §1

Scirpus juncoides = experiment: as above; conditions: Schoenoplectiella juncoides, 336 h, 120 g per 10 ares, 14 days after application, read-out: weed inhibition rate
Summary of the method: as §1

[2] = test system: Echinochloa crus-galli var. formosensis; experiment: Test Example 5: herbicidal effect test by soil application in paddy rice; conditions: Echinochloa crus-galli, 336 h, 7.5 g per 10 ares, 14 days after application, read-out: weed inhibition rate
Method: Herbicidal Effect Test by Soil Application in Paddy Rice
Wagner pots with an area of […] were filled with paddy soil, followed by addition of water and incorporation of chemical fertilizer (N:P:K=16:16:16), after which puddling was performed. After that, seeds of Echinochloa crus-galli var. formosensis, broad-leaved weeds (Lindemia pyxidaria, and Monochoria vaginalis), and Scirpus juncoides were sown at a depth of 0 cm to 1 cm, 30 seeds each. Immediately after sowing, the pots were flooded and a water depth of approximately 3 cm was maintained. Subsequent management was conducted in a glass greenhouse. Immediately thereafter, an emulsifiable concentrate prepared according to Formulation Example 5 using the compound shown below was diluted with water, and a specified amount of the diluted solution was applied by dropper. The amount of the active ingredient to be applied was equivalent to 7.5 g per 10 ares.
The present test was conducted in duplicate for each chemical concentration group, and the herbicidal effect was evaluated 14 days after chemical application using the same criteria as in Test Example 1.

CCOC(C)O[C@H]1C[C@]2(C)O[C@@]1(C(C)C)C[C@H]2OCc1ccccc1F (stereo partly drawn) [1-213, (1R,2S,4S,5R)-2-(1-ethoxyethoxy)-5-((2-fluorobenzyl)oxy)-1-isopropyl-4-methyl-7-oxabicyclo[2.2.1]heptane]
≥ 80%: inhibition at 1200 g/ha [1] | inhibition at 1200 g/ha (Monochoria vaginalis) | inhibition at 1200 g/ha (Scirpus juncoides) | inhibition at 75 g/ha [2]
